Experimental data taken from patent US20240391904A1, “DIHYDROPYRIMIDINE BASED COMPOUND, PREPARATION METHOD THEREFOR AND USE OF THEREOF” (CHENGDU SHIBEIKANG BIOMEDICAL TECHNOLOGY CO., LTD., priority 2021, published 2024).
Marks after values point to notes of the source that are not given here.

Legend:
[1] = tested on: KM mice; experiment: Mouse cough test (ammonia-induced coughing); format: in vivo; settings: for reduction in the number of coughs at 3 mg/kg: compared with model group; for duration of the cough suppression action / cough suppressing effect compared with the positive compound: 30 mg/kg; for duration of the cough suppression action: 30 to 120 min after administration; for Number of Coughs (time): mice
Text: Compounds of Example 1-24 (synthesized in the inventor's laboratory), positive control drug (gefapixant, batch No: 01030-210326-2-1, purchased from Holder Pharmaceuticals), the compound of Comparative Example 1 (synthesized in the inventor's laboratory).
Healthy adult KM mice, half of them are male and half of them are female, 6 per group, weighing about 28-30 g.
Most of the animal coughing models currently reported in the literatures use mechanical, chemical and electrical stimulations to stimulate the nerves and receptors of the animals to trigger coughing. According to the characteristics of the candidate compounds and the existing similar target compounds for reference, the method of concentrated ammonia induction was initially chosen to establish the cough modeling test in mice.
Preparation of 50% ammonia solution: 2.5 ml of ammonia was dissolved in […] of a 0.9% sodium chloride solution for injection and mixed evenly.
Preparation of a solution of the compound of Comparative Example 1: 9 mg of the compound of Comparative Example 1 was weighed and dissolved in 3 ml of a 0.5% CMC-Na solution, and mixed evenly to prepare a 3 mg/ml solution.
Preparation of a solution of the example compounds: 9 mg of the example compound was weighed and dissolved in 3 ml of a 0.5% CMC-Na solution, and mixed evenly to prepare a 3 mg/ml solution.
Grouping: a positive control group, a Comparative Example 1 group, Example 1 group-Example 24 group, and a model group were set up. Six KM mice were taken from each group and administered by gavage; here, the Comparative Example 1 group was given the compound of Comparative Example 1, the positive control group was given the positive control drug (gefapixant, commercially purchased), the Example groups were given the compounds prepared in the corresponding Examples, with each group given one of three dosages: 30 mg/kg, […], and 3 mg/kg; and the model group was given the same volume of 0.5% CMC-Na solution.
30 min, 60 min or 120 min after administration, the mice were placed in a 500 ml beaker with a cotton ball (weight 100±5 mg) containing 0.3 ml of 50% ammonia.
(1) Judgment criteria of coughing: coughing was manifest in contraction of abdominal muscles or chest contraction, with mouth wide opening and a coughing sound.
(2) The number of coughs (times) within 3 min was recorded with a stopwatch, and the data were statistically analyzed by software, with the data in each group shown in mean±standard deviation. A one-way analysis of variance among the groups was conducted, and P<0.05 was considered a difference having a statistical significance.

[2] = tested on: SD rats; experiment: Taste disorder test (quinine water versus tap water intake); format: in vivo, rat; settings: for effect on the taste sense: 10 mg/kg intravenously, quinine/tap water ratio compared with vehicle group; for Quinine/tap water (%): 10 mg/kg tail intravenous injection, 0-15 min after administration, 0.3 mM quinine hydrochloride water versus tap water
Protocol: Compounds of Examples 1, 9, 12, 15, 16, 24 (synthesized in the laboratory of the present inventor), the positive control drug (gefapixant, batch No: 01030-210326-2-1, purchased from Holder Pharmaceuticals).
0.9% sodium chloride solution for injection, quinine hydrochloride (Quinie, batch No: C12476271)
Healthy adult SD rats, all males, weighing about 280-300 g.
Preparation of 0.3 mM quinine solution: 119.20 mg of quinine hydrochloride was weighed and dissolved in 1000 ml of tap water, and mixed evenly.
Preparation of the test sample solution: 40 mg of a test sample was dissolved in DMSO and a solution of the solubilizer HS-15 was added, mixed evenly, and 16 ml of saline was added to formulate a 2.5 mg/ml solution.
Animal and grouping: male SD rats weighed about 160-180 g each, with 10 of a similar average weight in each group, were housed in seperate cages.
Drinking habit training: each group was given normal drinking water for 30 minutes at 8:30 am and 16:30 pm every day, and no access of water for the rest of the day for 5 days, and two bottles of water were changed every day at the left and right positions.
Administration: with no access to water the night before the experiment, in the following morning the test group was given 4 mL/kg (10 mg/kg) of the test sample by tail intravenous injection, and the model group was given 4 mL/kg (10 mg/kg) of 0.5% HS-15 by intravenous injection.
The animals were allowed to drink freely for 15 min, and the amount of water consumed from the two bottles was measured to the nearest 0.1 ml.
(2) Statistical analysis of the data: the drinking volume of the quinine bitter water and tap water were recorded separately, as well as the percentage of quinine water to the tap water, and the significance of the difference between the groups was determined by ANOVA.

[3] = target: T1, human P2X3 receptor (Homo sapiens, UniProt P56373); experiment: In vitro bioactivity evaluation: FLIPR antagonist mode, HEK 293 cells stably transfected with human P2X3 receptor, BZATP agonist
T1 sequence (P56373 1-397): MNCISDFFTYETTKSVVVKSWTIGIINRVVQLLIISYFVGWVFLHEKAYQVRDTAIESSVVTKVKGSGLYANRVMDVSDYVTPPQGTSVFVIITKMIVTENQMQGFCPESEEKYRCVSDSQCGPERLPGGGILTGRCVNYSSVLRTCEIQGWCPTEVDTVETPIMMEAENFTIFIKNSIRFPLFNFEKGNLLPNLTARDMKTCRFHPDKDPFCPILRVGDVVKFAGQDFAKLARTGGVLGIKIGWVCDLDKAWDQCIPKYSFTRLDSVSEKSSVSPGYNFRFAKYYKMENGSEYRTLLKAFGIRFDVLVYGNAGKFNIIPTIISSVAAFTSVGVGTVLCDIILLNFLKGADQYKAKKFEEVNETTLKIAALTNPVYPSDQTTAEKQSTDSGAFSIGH
Protocol: Cell culture medium: DMEM high glucose; 10% FBS; 1% PenStrep.
The Petri dish was placed in an incubator for 1-3 minutes or until the cells were digested, 3 mL of a complete medium was then added to terminate the digestion, and the cell density was determined by a cell counter. • 2) After centrifugation at 1000 rpm/min for 5 min, the cells were resuspended in a growth medium and the volume of the suspension was adjusted to reach a cell density of 4×10^5 cells/mL (1×10^4 cells/25 μL). • 3) 10 μL of 5× Matrigel was added into a black microplate, and the microplate was placed in an incubator for 15 min. The microplate was removed and invertedly centrifuged at 300 g/min for 30 s to remove the 5× Matrigel.

[4] = cited from earlier work
[5] = 3 mg/kg by gavage, 60 min after administration, coughs within 3 min
[6] = 10 mg/kg by gavage, 60 min after administration, coughs within 3 min
[7] = 30 mg/kg by gavage, 30 min after administration, coughs within 3 min, ammonia-induced
[8] = 30 mg/kg by gavage, 60 min after administration, coughs within 3 min (Table 5)
[9] = 30 mg/kg by gavage, 60 min after administration, coughs within 3 min (Table 6)
[10] = 30 mg/kg by gavage, 120 min after administration, coughs within 3 min

| effect on the taste sense [2] | Quinine/tap water (%) [2] | IC50 [3] [nM] | SMILES | reduction in the number of coughs at 3 mg/kg ([1]; 60 min after administration) | cough suppressing efficacy at 10 mg/kg ([1]; 60 min after administration) | duration of the cough suppression action [1] | cough suppressing effect compared with the positive compound ([1]; 30 min after administration) | Number of Coughs (time) [1, 5] | Number of Coughs (time) [1, 6] | Number of Coughs (time) [1, 7] | Number of Coughs (time) [1, 8] | Number of Coughs (time) [1, 9] | Number of Coughs (time) [1, 10] | primary efficacy endpoint ([4]; 15 mg twice a day) | 24-hour cough frequency ([4]; 45 mg twice a day, Week 12 (COUGH-1) and Week 24 (COUGH-2), compared to placebo) | discontinuation due to adverse events ([4]; 45 mg) | taste-related adverse events ([4]; 45 mg) |
| --- | --- | --- | --- | --- | --- | --- | --- | --- | --- | --- | --- | --- | --- | --- | --- | --- | --- |
| little or no effect on the taste sense | 41.48%^Δ | < 10 | COC(=O)[C@@H](C)Cn1c(=O)cc(Nc2ccc(Oc3cnccn3)cc2)n(Cc2ccc(Cl)cc2)c1=O [Compound 1] | – | – | – | stronger than that of the positive compound | – | – | 15.33** time | – | – | – | – | – | – | – |
| significant effect on the taste sense | 79.01%** | – | COc1cc(C(C)C)c(Oc2cnc(N)nc2N)cc1S(N)(=O)=O [Positive control, gefapixant, reference compound] | – | did not have a significant effect in reducing coughs | – | – | – | 38.83 time | 20.33* time | 23.83** time | – | – | not met | statistically significant reduction | higher frequency | higher incidence |
| little or no effect on the taste sense | 39.84%^Δ | 10.1 to 50 | C[C@@H](Cn1c(=O)cc(Nc2ccc(Oc3ccccn3)cc2)n(Cc2ccc(Cl)cc2)c1=O)C(=O)NS(C)(=O)=O [Compound 9] | statistically significant (P<0.01) reduction in the number of coughs | improved cough suppressing efficacy than the positive control drug | significantly prolonged compared with that of the compound of Comparative Example 1 | stronger than that of the positive compound | 25.37** time | 19.54**^Δ time | 13.62** time | 16.33** time | 16.33** time | 23.83**^Δ time | – | – | – | – |

Further lines, the molecule ahead of its results:

| SMILES | effect on the taste sense [2] | Quinine/tap water (%) [2] | IC50 [3] [nM] | reduction in the number of coughs at 3 mg/kg ([1]; 60 min after administration) | cough suppressing efficacy at 10 mg/kg ([1]; 60 min after administration) | duration of the cough suppression action [1] | cough suppressing effect compared with the positive compound ([1]; 30 min after administration) | Number of Coughs (time) [1, 5] | Number of Coughs (time) [1, 6] | Number of Coughs (time) [1, 7] | Number of Coughs (time) [1, 8] | Number of Coughs (time) [1, 9] | Number of Coughs (time) [1, 10] | primary efficacy endpoint ([4]; 15 mg twice a day) | 24-hour cough frequency ([4]; 45 mg twice a day, Week 12 (COUGH-1) and Week 24 (COUGH-2), compared to placebo) | discontinuation due to adverse events ([4]; 45 mg) | taste-related adverse events ([4]; 45 mg) |
| --- | --- | --- | --- | --- | --- | --- | --- | --- | --- | --- | --- | --- | --- | --- | --- | --- | --- |
| CS(=O)(=O)NC(=O)C1(Cn2c(=O)cc(Nc3ccc(Oc4ccccn4)cc3)n(Cc3ccc(Cl)cc3)c2=O)CC1 [Compound 15] | little or no effect on the taste sense | 40.22%^Δ | 10.1 to 50 | statistically significant (P<0.01) reduction in the number of coughs | improved cough suppressing efficacy than the positive control drug | significantly prolonged compared with that of the compound of Comparative Example 1 | stronger than that of the positive compound | 24.83** time | 20.83**^Δ time | 18.64** time | 16.33** time | 16.33** time | 23.83**^Δ time | – | – | – | – |
| C[C@@H](Cn1c(=O)cc(Nc2ccc(Oc3ncccc3F)cc2)n(Cc2ccc(Cl)cc2)c1=O)C(=O)NS(C)(=O)=O [Compound 16, (S)-3-(3-(4-chlorobenzyl)-4-(4-(3-(3-fluoropyridin-2-yl)oxyphenyl)amino)-2,6-dioxo-3,6-dihydropyrimidin-1(2H)yl)-2-methyl-N-(methylsulfonyl)propionamide group] | little or no effect on the taste sense | 42.53%^Δ | < 10 | statistically significant (P<0.01) reduction in the number of coughs | improved cough suppressing efficacy than the positive control drug | significantly prolonged compared with that of the compound of Comparative Example 1 | – | 23.81** time | 15.13**^Δ time | 19.34** time | 16.11** time | 16.11** time | 18.13**^Δ time | – | – | – | – |
| C[C@@H](Cn1c(=O)cc(Nc2ccc(Oc3cccc(F)n3)cc2)n(Cc2ccc(Cl)cc2)c1=O)C(=O)NS(C)(=O)=O [Compound 24] | little or no effect on the taste sense | 39.61%^Δ | < 10 | statistically significant (P<0.01) reduction in the number of coughs | improved cough suppressing efficacy than the positive control drug | significantly prolonged compared with that of the compound of Comparative Example 1 | stronger than that of the positive compound | 25.45** time | 24.14**^Δ time | 17.07** time | 21.33** time | 21.33** time | 25.14**^Δ time | – | – | – | – |
| CC(C)(Cn1c(=O)cc(Nc2ccc(Oc3ccccn3)cc2)n(Cc2ccc(Cl)cc2)c1=O)C(=O)NS(C)(=O)=O [Compound 12] | little or no effect on the taste sense | 37.18%^Δ | < 10 | – | improved cough suppressing efficacy than the positive control drug | significantly prolonged compared with that of the compound of Comparative Example 1 | stronger than that of the positive compound | 33.17 time | 21.17**^Δ time | 15.67** time | 17.17** time | 17.17** time | 20.17*^Δ time | – | – | – | – |
